As a reminder, the IC50 is the point on the concentration scale where inhibition reaches its midpoint. Low values mean greater potency, high ones weaker potency.

This note sets out measurements from publication PMC12655757, “Design and Synthesis of Novel Candidate CK1δ Proteolysis Targeting Chimeras (PROTACs)” (Molecules, 2025).

Molecules are shown by their SMILES.

The target of experiment [1] is T1, CK1δ (Homo sapiens, UniProt P48730).
T1 construct: gene CSNK1D
Put plainly: in vitro radiometric kinase assay ([…]-ATP, CK1 peptide substrate). Format: biochemical.

Experiment [2] concerns the target T1, CK1δ. The experiment in a line: in vitro radiometric kinase assay ([…]-ATP, CK1 peptide substrate); CRBN-dependent CK1δ degradation in cells. Type of experiment: biochemical.

T1 sequence (P48730 whole entry): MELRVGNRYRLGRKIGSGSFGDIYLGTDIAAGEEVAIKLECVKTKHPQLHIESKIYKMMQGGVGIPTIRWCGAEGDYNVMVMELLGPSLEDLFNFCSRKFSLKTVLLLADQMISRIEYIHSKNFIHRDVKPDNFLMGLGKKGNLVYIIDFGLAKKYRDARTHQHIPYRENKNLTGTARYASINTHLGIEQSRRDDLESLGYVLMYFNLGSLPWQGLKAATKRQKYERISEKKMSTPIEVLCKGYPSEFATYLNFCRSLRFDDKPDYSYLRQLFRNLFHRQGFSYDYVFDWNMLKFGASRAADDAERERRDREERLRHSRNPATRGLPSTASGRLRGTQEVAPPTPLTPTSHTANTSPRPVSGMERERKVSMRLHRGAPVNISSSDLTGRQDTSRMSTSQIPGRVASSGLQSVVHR

Consider `Nc1ccc(Cn2c(SCC(=O)Nc3nc4ccc(C(F)(F)F)cc4s3)nccc2=O)cc1` [I9], for which the IC50 against CK1δ [1] was 3430 nM.

In the case of `O=C1CCC(N2C(=O)c3cccc(NCCCCCC(=O)Nc4ccc(Cn5c(SCC(=O)Nc6nc7ccc(C(F)(F)F)cc7s6)nccc5=O)cc4)c3C2=O)C(=O)N1` (stereo not shown) [P1d], the IC50 at CK1δ [2] came to 2160 nM. This counts as single-digit micromolar.

The molecule `O=C1CCC(N2C(=O)c3cccc(OCCCOCCC(=O)Nc4ccc(Cn5c(SCC(=O)Nc6nc7ccc(C(F)(F)F)cc7s6)nccc5=O)cc4)c3C2=O)C(=O)N1` (stereo not shown) [P3d] yielded an IC50 against CK1δ [1] of 1960 nM. In other words, the single-digit micromolar range.

Consider `O=C1CCC(N2C(=O)c3ccc(OCCCOCCC(=O)Nc4ccc(Cn5c(SCC(=O)Nc6nc7ccc(C(F)(F)F)cc7s6)nccc5=O)cc4)cc3C2=O)C(=O)N1` (stereo not shown) [P4d], for which the IC50 on CK1δ [1] was roughly 2200 nM.
